Molecular target: Skeletal Myofibril ATPase (Rabbit Psoas myofibrils)
Assay: Skeletal Myofibril ATPase Assay
Format: biochemical
Settings: PK/LDH-coupled NADH absorbance at 340 nm
Experimental: Overview: Myosin ATPase activity was assessed by using a coupled reaction system, in which ADP generated by the myosin ATPase function was coupled to the disappearance of NADH through the pyruvate kinase/lactate dehydrogenase (PK-LDH) system. Myosin ATPase activity produces ADP, which was used as a substrate for PK to produce pyruvate and regenerate ATP. The pyruvate was then used as a substrate by LDH to oxidize NADH to NAD+. The rate of the reaction was monitored through the time-dependent disappearance of NADH using absorbance at 340 nm. Inhibition of ATPase activity by the assayed compounds was indicated by a reduced rate of NADH loss, relative to vehicle-treated controls, over the experimental time window. To assess the selectivity of the assayed compounds for skeletal myofibrils, the compounds were counter-screened in cardiac myofibrils.
Materials: The following stock solutions and reagents were used in the Skeletal Myofibril ATPase Assay:
Stock Solutions of pCa buffer. Combine PIPES, CaCl2, and EGTA solutions with 70 mL of water. Adjust pH to 7.0 and bring final volume to 100 mL.
Buffer A & Buffer B. Buffers were stored on ice until use.
Skeletal Myofibril ATPase Assay Procedure: BSA, ATP, NADH, PEP, and DTT solutions were thawed at room temperature, then transferred to ice. Pellet-frozen myofibrils (approximately twice the required volume) were transferred into a sufficiently large tube and capped. Myofibrils were thawed by rolling in a water bath for approximately 15 min at room temperature and cooled on ice. Buffers A and B were prepared by adjusting volumes as necessary for required number of wells and stored on ice. 0.5 μL of the compounds to be assayed were added into wells of a 384-well plate. Buffers A and B were mixed by inversion immediately prior to use, then 25 μL of each was dispensed using a Multidrop dispenser (Buffer A first, then Buffer B). The absorbance within the wells was measured at 340 nm, using a kinetic protocol in which the wells are read every 1.5-2 min for 1 h. The reaction rate was qualitatively assessed by subtracting the minimum absorbance value from the maximum value for each well, using either the SoftMax Pro plate reader software or a spreadsheet program such as Excel. Using GraphPad Prism 8.0, the data was normalized, with 100% activity defined as the absorbance change in the 1% DMSO vehicle wells and 0% assigned to no change in absorbance over the course of the experiment. The normalized data were fit to a variable-slope four-parameter logistic model, constraining the bottom to be 0 or greater. Compounds of Table 1 to 3 were tested and results of the assay appear in Table 4 herein. A=IC50 is less than or equal to 10 μM; B=IC50 is greater than 10 μM and less than 100 μM; C=IC50 is greater than 100 μM.

Q: For `O=c1ccc(-c2cccs2)nn1Cc1cccc(F)c1` [Compound 57, 2-(3-fluorobenzyl)-6-(thiophen-2-yl)pyridazin-3(2H)-one], which IC50 is on record?
A: 10 to 100 µM

Q: For `Cc1ccc(-c2ccc(=O)n(CC(=O)N[C@](C)(C#N)C(C)C)n2)s1` [Compound 36, (S)-N-(2-cyano-3-methylbutan-2-yl)-2-(3-(5-methylthiophen-2-yl)-6-oxopyridazin-1(6H)-yl)acetamide], which IC50 is on record?
A: 10 to 100 µM

Q: `Cc1cccc(-c2noc(-c3ccc(=O)n(Cc4cncc(C#N)c4)c3)n2)c1` [Compound 98, 5-((2-oxo-5-(3-(m-tolyl)-1,2,4-oxadiazol-5-yl)pyridin-1(2H)-yl)methyl)nicotinoni trile] was tested. Which IC50 did it give?
A: ≤ 10 µM

Q: For `COc1ccc(Cn2cc(-c3nc(-c4cccc(C)c4)no3)ccc2=O)cn1` [Compound 88, 1-((6-methoxypyridin-3-yl)methyl)-5-(3-(m-tolyl)-1,2,4-oxadiazol-5-yl)pyridin-2(1H)-one], which IC50 is on record?
A: ≤ 10 µM

Q: How did the IC50 turn out when `O=C(Cn1nc(-c2cccs2)ccc1=O)Nc1ccc2cc[nH]c2c1` [Compound 48, N-(1H-indol-6-yl)-2-(6-oxo-3-(thiophen-2-yl)pyridazin-1(6H)-yl)acetamide] was run?
A: > 100 µM

Q: With `O=c1ccc(-n2cncn2)nn1Cc1ccc(Cl)cc1` [Compound 79, 2-(4-chlorobenzyl)-6-(1H-1,2,4-triazol-1-yl)pyridazin-3(2H)-one] as the compound, how does the IC50 read?
A: 10 to 100 µM

Q: Which IC50 does the source give for `Cc1ccc(-c2ccc(=O)n(CCOc3cccc(C#N)c3)n2)s1` [Compound 61, 3-(2-(3-(5-methylthiophen-2-yl)-6-oxopyridazin-1(6H)-yl)ethoxy)benzonitrile] here?
A: > 100 µM

Q: With `Cc1cnc(-c2ccc(=O)n(CC(=O)NCc3ccccc3Cl)n2)s1` [Compound 26, N-(2-chlorobenzyl)-2-(3-(5-methylthiazol-2-yl)-6-oxopyridazin-1(6H)-yl)acetamide] as the compound, how does the IC50 read?
A: ≤ 10 µM

Q: `Cc1ccc(-c2ccc(=O)n(CC(=O)NC3CCCCC3)n2)s1` [Compound 44, N-cyclohexyl-2-(3-(5-methylthiophen-2-yl)-6-oxopyridazin-1(6H)-yl)acetamide] was tested. Which IC50 did it give?
A: > 100 µM

Q: `CCNC(=O)Cn1nc(-c2nnc(-c3cncc(C(F)(F)F)c3)s2)ccc1=O` [Compound 19, N-ethyl-2-(6-oxo-3-(5-(5-(trifluoromethyl)pyridin-3-yl)-1,3,4-thiadiazol-2-yl)pyridazin-1(6H)-yl)acetamide] was tested. Which IC50 did it give?
A: ≤ 10 µM

Q: Which IC50 does the source give for `CCC(C)(C)NC(=O)Cn1nc(-c2ccc(C)s2)ccc1=O` [Compound 82, 2-(3-(5-methylthiophen-2-yl)-6-oxopyridazin-1(6H)-yl)-N-(tert-pentyl)acetamide] here?
A: ≤ 10 µM

Q: How did the IC50 turn out when `O=c1ccc(-c2nc(-c3cnccn3)no2)cn1Cc1ccccc1F` [Compound 116, 1-(2-fluorobenzyl)-5-(3-(pyrazin-2-yl)-1,2,4-oxadiazol-5-yl)pyridin-2(1H)-one] was run?
A: > 120 µM

Q: With `O=c1ccc(-c2cccs2)nn1Cc1cccc(C(F)(F)F)c1` [Compound 59, 6-(thiophen-2-yl)-2-(3-(trifluoromethyl)benzyl)pyridazin-3(2H)-one] as the compound, how does the IC50 read?
A: > 100 µM

Q: Which IC50 does the source give for `Cc1cccc(-c2noc(-c3ccc(=O)n(Cc4ccc(C)nc4)c3)n2)c1` [Compound 96, 1-((6-methylpyridin-3-yl)methyl)-5-(3-(m-tolyl)-1,2,4-oxadiazol-5-yl)pyridin-2(1H)-one] here?
A: ≤ 10 µM

Q: For `CCNC(=O)Cn1nc(-c2nc(-c3cncc(Cl)c3)no2)ccc1=O` [Compound 12, 2-(3-(3-(5-chloropyridin-3-yl)-1,2,4-oxadiazol-5-yl)-6-oxopyridazin-1(6H)-yl)-N-ethylacetamide], which IC50 is on record?
A: ≤ 10 µM

Q: Which IC50 does the source give for `CCNC(=O)Cn1nc(-c2nc(-c3cc(F)cc(F)c3)no2)ccc1=O` [Compound 9, 2-(3-(3-(3,5-difluorophenyl)-1,2,4-oxadiazol-5-yl)-6-oxopyridazin-1(6H)-yl)-N-ethylacetamide] here?
A: ≤ 10 µM

Q: Which IC50 does the source give for `CC(C)NC(=O)Cn1nc(-c2cccs2)ccc1=O` [Compound 49, N-isopropyl-2-(6-oxo-3-(thiophen-2-yl)pyridazin-1(6H)-yl)acetamide] here?
A: > 100 µM

Q: Which IC50 does the source give for `COCCn1nc(-c2nc(-c3ccc(F)c(C)c3)no2)ccc1=O` [Compound 74, 6-(3-(4-fluoro-3-methylphenyl)-l,2,4-oxadiazol-5-yl)-2-(2-methoxyethyl)pyridazin-3(2H)-one] here?
A: 10 to 100 µM

Q: With `O=c1ccc(-c2nnc(-c3cccc(Cl)c3)o2)nn1Cc1ccccc1` [Compound 73, 2-benzyl-6-(5-(3-chlorophenyl)-1,3,4-oxadiazol-2-yl)pyridazin-3(2H)-one] as the compound, how does the IC50 read?
A: ≤ 10 µM

Q: For `CCNC(=O)Cn1nc(-c2nc(-c3cccc(OC(F)(F)F)c3)no2)ccc1=O` [Compound 6, N-ethyl-2-(6-oxo-3-(3-(3-(trifluoromethoxy)phenyl)-1,2,4-oxadiazol-5-yl)pyridazm-1(6H)-yl)acetamide], which IC50 is on record?
A: ≤ 10 µM

Q: Which IC50 does the source give for `Cc1cccc(-c2noc(-c3ccc(=O)n(Cc4ccc(Cl)nc4)c3)n2)c1` [Compound 87, 1-((6-chloropyridin-3-yl)methyl)-5-(3-(m-tolyl)-1,2,4-oxadiazol-5-yl)pyridin-2(1H)-one] here?
A: ≤ 10 µM

Q: Which IC50 does the source give for `Cc1cccc(-c2noc(-c3ccc(=O)n(Cc4ncc(C)s4)c3)n2)c1` [Compound 92, 1-((5-methylthiazol-2-yl)methyl)-5-(3-(m-tolyl)-1,2,4-oxadiazol-5-yl)pyridin-2(1H)-one] here?
A: ≤ 10 µM

Q: For `O=C(Cn1nc(-c2nnc(-c3cncc(Cl)c3)s2)ccc1=O)NC1CCC1` [Compound 20, 2-(3-(5-(5-chloropyridin-3-yl)-1,3,4-thiadiazol-2-yl)-6-oxopyridazin-1(6H)-yl)-N-cyclobutylacetamide], which IC50 is on record?
A: ≤ 10 µM

Q: With `Cn1cnc(-c2ccc(=O)n(CC(=O)NCc3ccccc3Cl)n2)c1` [Compound 55, N-(2-chlorobenzyl)-2-(3-(1-methyl-1H-imidazol-4-yl)-6-oxopyridazin-1(6H)-yl)acetamide] as the compound, how does the IC50 read?
A: > 100 µM

Q: Which IC50 does the source give for `CCNC(=O)Cn1nc(-c2nc(-c3cccc(Cl)c3F)no2)ccc1=O` [Compound 3, 2-(3-(3-(3-chloro-2-fluoropheny)-1,2,4-oxadiazol-5-yl)-6-oxopyridazin-1(6H)-yl)-N-ethylacetamide] here?
A: ≤ 10 µM

Q: With `O=c1ccc(-c2nc(-c3cccc(Cl)c3)no2)cn1Cc1cccnc1` [Compound 91, 5-(3-(3-chlorophenyl)-1,2,4-oxadiazol-5-yl)-1-(pyridin-3-ylmethyl)pyndin-2(1H)-one] as the compound, how does the IC50 read?
A: ≤ 10 µM

Q: Which IC50 does the source give for `O=c1ccc(-c2nc(-c3cncc(Cl)c3)no2)nn1Cc1ccccc1` [Compound 66, 2-benzyl-6-(3-(5-chloropyridin-3-yl)-1,2,4-oxadiazol-5-yl)pyridazin-3(2H)-one] here?
A: ≤ 10 µM

Q: With `COc1ccc(NC(=O)Cn2nc(-c3cccs3)ccc2=O)cc1` [Compound 45, N-(4-methoxyphenyl)-2-(6-oxo-3-(thiophen-2-yl)pyridazin-1(6H)-yl)acetamide] as the compound, how does the IC50 read?
A: 10 to 100 µM

Q: `Cc1cccc(-c2noc(-c3ccc(=O)n(Cc4cccnc4C)c3)n2)c1` [Compound 118, 1-((2-methylpyridin-3-yl)methyl)-5-(3-(m-tolyl)-1,2,4-oxadiazol-5-yl)pyridin-2(1H)-one] was tested. Which IC50 did it give?
A: > 120 µM

Q: `O=c1ccc(-n2cncn2)nn1Cc1cccc(Cl)c1` [Compound 78, 2-(3-chlorobenzyl)-6-(1H-1,2,4-triazol-1-yl)pyridazin-3(2H)-one] was tested. Which IC50 did it give?
A: 10 to 100 µM

Q: How did the IC50 turn out when `O=c1ccc(-n2cncn2)nn1Cc1csc(Br)c1` [Compound 80, 2-((5-bromothiophen-3-yl)methyl)-6-(1H-1,2,4-triazol-1-yl)pyridazin-3(2H)-one] was run?
A: 10 to 100 µM

Q: Which IC50 does the source give for `O=c1ccc(-c2nc(-c3cncc(Cl)c3)no2)cn1Cc1cccnc1` [Compound 99, 5-(3-(5-chloropyridin-3-yl)-1,2,4-oxadiazol-5-yl)-1-(pyridin-3-ylmethyl)pyridin-2(1H)-one] here?
A: ≤ 10 µM

Q: Which IC50 does the source give for `CCNC(=O)Cn1nc(-c2nc(-c3cccc(OC)c3)no2)ccc1=O` [Compound 4, N-ethyl-2-(3-(3-(3-methoxyphenyl)-1,2,4-oxadiazol-5-yl)-6-oxopyridazin-1(6H)-yl)acetamide] here?
A: ≤ 10 µM

Q: How did the IC50 turn out when `CCNC(=O)Cn1nc(-c2nc(-c3ccc(F)c(F)c3)no2)ccc1=O` [Compound 8, 2-(3-(3-(3,4-difluorophenyl)-1,2,4-oxadiazol-5-yl)-6-oxopyridazin-1(6H)-yl)-N-ethylacetamide] was run?
A: ≤ 10 µM

Q: Which IC50 does the source give for `CCNC(=O)Cn1nc(-c2nc(-c3cccc(F)c3)no2)ccc1=O` [Compound 2, N-ethyl-2-(3-(3-(3-fluorophenyl)-1,2,4-oxadiazol-5-yl)-6-oxopyridazin-1(6H)-yl)acetamide] here?
A: ≤ 10 µM

Q: How did the IC50 turn out when `Cc1cccc(-c2noc(-c3ccc(=O)n(Cc4cncc(Cl)c4)c3)n2)c1` [Compound 90, 1-((5-chloropyridin-3-yl)methyl)-5-(3-(m-tolyl)-1,2,4-oxadiazol-5-yl)pyridin-2(1H)-one] was run?
A: ≤ 10 µM
